Data published in patent US4061767A, “Cyano acetic acid anilide derivatives, process for their manufacture and compositions containing these compounds” (Hoechst Aktiengesellschaft, priority 1975, dated 1977).

Legend:
writhing = writhing test on mice (analgesic effect); format: in vivo; conditions: Mus musculus, po, per os, dosis that reduces the number of writhings by 50% vs control
Method: (§1) The ED50 levels were determined graphically on probability paper. In the writhing test, the ED50 is defined to be the dosis of active ingredient that reduces the number of writhings by 50% as compared with a control group. In the adjuvant arthritis test, the effect was judged by observing the inhibition in the secondary lesions, which the animals inflicted to their ears, paws and tails, on the 17th day after the administration of the active substance compositions had started, in comparison with a control group. ED50 is considered the dosis that reduces these lesions by 50% as compared to those of the control group.

in vivo [1] = conditions: mouse, po, per os, N.M.R.I. mice, observation time 7 days
in vivo [2] = conditions: rat, po, per os, observation time 7 days
Excerpt: ^1) Limits of confidence for p = 0.05 in brackets
^2) Sprague-Dawley rats used as test animals

adjuvant arthritis = adjuvant arthritis in rats (anti-inflammatory effect); format: in vivo; conditions: Rattus norvegicus, po, 408 h, per os, 50% reduction of secondary lesions on the 17th day vs control
Method: as §1

in vivo [3] = assay: in vivo; set-up: species or system male rats of a Sprague-Dawley strain; conditions: rat, po
Method: To examine the ulcerogenic activity, the substances to be tested were orally administered to male rats of a Sprague-Dawley strain, that had been kept unfed for 18 hours, and 24 hours after administration, the gastrointestinal tract of the animals was inspected for ulcers.

For `CC(O)=C(C#N)C(=O)Nc1cccc(Cl)c1` [No. 2], the ED50 (writhing) was ~25 mg/kg, the LD50 at 168 h (in vivo [1]) was 585 mg/kg and the LD50 at 168 h (in vivo [2]; female Wistar-Lewis rats) was 445 mg/kg. It also gave an ED50 (adjuvant arthritis) of 22 mg/kg and an NOAEL at 24 h (in vivo [3]) of 200 mg/kg.

For `CCCCC1C(=O)N(c2ccccc2)N(c2ccccc2)C1=O` [Phenylbutazone, phenylbutazone, reference compound], the ED50 (writhing) was 60 to 100 mg/kg, the ED50 (adjuvant arthritis) was 37 mg/kg and the NOAEL at 24 h (in vivo [3]) was 63 mg/kg.

With `CC(O)=C(C#N)C(=O)Nc1cccc(C(F)(F)F)c1` [compound 11] the ED50 (writhing) was 25 mg/kg, the LD50 at 168 h (in vivo [1]) was 660 mg/kg and the LD50 at 168 h (in vivo [2]; Sprague-Dawley rats used as test animals (footnote 2)) was 670 mg/kg. The ED50 (adjuvant arthritis) was 28 mg/kg and the NOAEL at 24 h (in vivo [3]) was 100 mg/kg.
